# Laboratory results as given in US20240343733A1, “COMPOUNDS FOR TARGETING DEGRADATION OF IRAK4 PROTEINS” (BIOGEN MA INC., priority 2021, published 2024).
# Target: T1, IRAK4 (Homo sapiens, UniProt Q9NWZ3)
# T1 construct: 293Tcells expressing HiBiT-tagged IRAK4 were then added into 384-well plates
# T1 sequence (Q9NWZ3 1-460): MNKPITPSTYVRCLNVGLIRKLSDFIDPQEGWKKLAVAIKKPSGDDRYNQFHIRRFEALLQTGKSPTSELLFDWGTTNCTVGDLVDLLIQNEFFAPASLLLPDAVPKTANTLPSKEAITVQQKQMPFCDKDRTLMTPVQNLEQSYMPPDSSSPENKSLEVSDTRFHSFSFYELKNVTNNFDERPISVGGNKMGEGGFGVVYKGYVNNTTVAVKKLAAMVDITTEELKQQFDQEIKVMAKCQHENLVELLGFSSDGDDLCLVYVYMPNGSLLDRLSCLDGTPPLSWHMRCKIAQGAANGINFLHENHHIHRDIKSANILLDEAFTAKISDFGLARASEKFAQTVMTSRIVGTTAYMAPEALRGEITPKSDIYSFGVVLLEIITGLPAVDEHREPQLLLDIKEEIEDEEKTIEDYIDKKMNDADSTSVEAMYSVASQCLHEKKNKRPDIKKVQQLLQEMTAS
# Test: IRAK4 Degradation Assay, HiBiT Method
# Assay type: cell-based
# Settings: 293T cells expressing HiBiT-tagged IRAK4, 6 hours
# Outline: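 Luminescent read-out with Nano-Glo HiBiT lytic reagent after 6 h compound exposure at 37 °C. Cells were HiBiT-IRAK4 knock-in 293T (C-terminal tag), 10,000 per well. Compounds ran as 11-point half-log dilutions from […] highest dose, duplicate wells; DMSO served as negative control.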
row,SMILES,DC50 [nM]
1,"CC(C)Oc1cc2nc([C@H]3CC[C@H](CN4CCC(c5cc6c(cc5F)c(N5CCC(=O)NC5=O)nn6C)C(F)(F)C4)CC3)cn2cc1C(=O)Nc1cccc(C(F)F)n1 (stereo partly drawn) [Example 33, N-[6-(difluoromethyl)-2-pyridyl]-2-[4-[[4-[3-(2,4-dioxohexahydropyrimidin-1-yl)-5-fluoro-1-methyl-indazol-6-yl]-3,3-difluoro-1-piperidyl]methyl]cyclohexyl]-7-isopropoxy-imidazo[1,2-a]pyridine-6-carboxamide]",100 to 500
2,"CC(C)Oc1cc2nn(C3CCN(C(=O)CC4(O)CCN(c5ccc(NC6CCC(=O)NC6=O)cc5)CC4)CC3)cc2cc1C(=O)Nc1cccc(C(F)F)n1 (stereo not drawn) [Example 65, N-(6-(difluoromethyl)pyridin-2-yl)-2-(1-(2-(1-(4-((2,6-dioxopiperidin-3-yl)amino)phenyl)-4-hydroxypiperidin-4-yl)acetyl)piperidin-4-yl)-6-isopropoxy-2H-indazole-5-carboxamide]",10 to 100
3,"CC(C)Oc1cc2nc([C@H]3CC[C@H](CN4CCC(c5cccc(NC6CCC(=O)NC6=O)c5)CC4)CC3)cn2cc1C(=O)Nc1cccc(C(F)F)n1 (stereo partly drawn) [Example 26, N-[6-(difluoromethyl)-2-pyridyl]-2-[4-[[4-[3-[(2,6-dioxo-3-piperidyl)amino]phenyl]-1-piperidyl]methyl]cyclohexyl]-7-isopropoxy-imidazo[1,2-a]pyridine-6-carboxamide]",100 to 500
4,"CC(C)Oc1cc2nc(C3CCC(CN4CCC(c5ccc(C6CCC(=O)NC6=O)cc5)CC4)CC3)cn2cc1C(=O)Nc1cccc(C(F)F)n1 (stereo not drawn) [Example 15, N-[6-(difluoromethyl)-2-pyridyl]-2-[4-[[4-[4-(2,6-dioxo-3-piperidyl)phenyl]-1-piperidyl]methyl]cyclohexyl]-7-isopropoxy-imidazo[1,2-a]pyridine-6-carboxamide]",10 to 100
5,"CC(C)Oc1cc2nc([C@H]3CC[C@H](CN4CCC(c5ccc(NC6CCC(=O)NC6=O)cc5)CC4)CC3)cn2cc1C(=O)Nc1cccc(C(F)(F)F)n1 (stereo partly drawn) [Example 2, 2-[4-[[4-[4-[(2,6-dioxo-3-piperidyl)amino]phenyl]-1-piperidyl]methyl]cyclohexyl]-7-isopropoxy-N-[6-(trifluoromethyl)-2-pyridyl]imidazo[1,2-a]pyridine-6-carboxamide]",10 to 100
6,"CC(C)Oc1cc2nc([C@H]3CC[C@H](CN4CCC(c5cccc6c5n(C)c(=O)n6C5CCC(=O)NC5=O)CC4)CC3)cn2cc1C(=O)Nc1cccc(C(F)(F)F)n1 (stereo partly drawn) [Example 3, 2-[4-[[4-[1-(2,6-dioxo-3-piperidyl)-3-methyl-2-oxo-benzimidazol-4-yl]-1-piperidyl]methyl]cyclohexyl]-7-isopropoxy-N-[6-(trifluoromethyl)-2-pyridyl]imidazo[1,2-a]pyridine-6-carboxamide]",100 to 500
7,"CC(C)Oc1cc2nc([C@H]3CC[C@H](CN(C)C4CCN(c5ccc(NC6CCC(=O)NC6=O)cc5)CC4)CC3)cn2cc1C(=O)Nc1cccc(C(F)F)n1 (stereo partly drawn) [Example 20, N-[6-(difluoromethyl)-2-pyridyl]-2-[4-[[[1-[4-[(2,6-dioxo-3-piperidyl)amino]phenyl]-4-piperidyl]-methyl-amino]methyl]cyclohexyl]-7-isopropoxy-imidazo[1,2-a]pyridine-6-carboxamide]",10 to 100
8,"CC(C)Oc1cc2nc([C@H]3CC[C@H](CN(C)C4CCN(Cc5cccc(NC6CCC(=O)NC6=O)c5)CC4)CC3)cn2cc1C(=O)Nc1cccc(C(F)(F)F)n1 (stereo partly drawn) [Example 14, 2-[4-[[[1-[[3-[(2,6-dioxo-3-piperidyl)amino]phenyl]methyl]-4-piperidyl]-methyl-amino]methyl]cyclohexyl]-7-isopropoxy-N-[6-(trifluoromethyl)-2-pyridyl]imidazo[1,2-a]pyridine-6-carboxamide]",500 to 1000
9,"CC(C)Oc1cc2nc([C@H]3CC[C@H](CN(C)C4CCN(c5cccc(NC6CCC(=O)NC6=O)c5)CC4)CC3)cn2cc1C(=O)Nc1cccc(C(F)F)n1 (stereo partly drawn) [Example 24, N-[6-(difluoromethyl)-2-pyridyl]-2-[4-[[[1-[3-[(2,6-dioxo-3-piperidyl)amino]phenyl]-4-piperidyl]-methyl-amino]methyl]cyclohexyl]-7-isopropoxy-imidazo[1,2-a]pyridine-6-carboxamide]",10 to 100
10,"CC(C)Oc1cc2nc([C@H]3CC[C@H](CN(C)C4CCN(Cc5ccc(NC6CCC(=O)NC6=O)cc5)CC4)CC3)cn2cc1C(=O)Nc1cccc(C(F)F)n1 (stereo partly drawn) [Example 32, N-[6-(difluoromethyl)-2-pyridyl]-2-[4-[[[1-[[4-[(2,6-dioxo-3-piperidyl)amino]phenyl]methyl]-4-piperidyl]-methyl-amino]methyl]cyclohexyl]-7-isopropoxy-imidazo[1,2-a]pyridine-6-carboxamide]",100 to 500

# Next, values leading:
row,DC50 [nM],SMILES
1,< 10,"CC(C)Oc1cc2nn([C@H]3CC[C@H](CN4CCC(c5ccc6c(N7CCC(=O)NC7=O)nn(C)c6c5)CC4)CC3)cc2cc1C(=O)Nc1cccn([C@H]2C[C@H]2F)c1=O [Example 144, 2-((1r,4S)-4-((4-(3-(2,4-dioxotetrahydropyrimidin-1(2H)-yl)-1-methyl-1H-indazol-6-yl)piperidin-1-yl)methyl)cyclohexyl)-N-(1-((1S,2R)-2-fluorocyclopropyl)-2-oxo-1,2-dihydropyridin-3-yl)-6-isopropoxy-2H-indazole-5-carboxamide]"
2,< 10,"CC(C)Oc1cc2nn([C@H]3CC[C@H](CN4CC[C@H](c5ccc6c(N7CCC(=O)NC7=O)nn(C)c6c5)[C@H](O)C4)CC3)cc2cc1C(=O)Nc1cccn(C2C[C@H]2F)c1=O (stereo partly drawn) [Example 116, 2-((1S,4S)-4-(((3S,4R)-4-(3-(2,4-dioxotetrahydropyrimidin-1(2H)-yl)-1-methyl-1H-indazol-6-yl)-3-hydroxypiperidin-1-yl)methyl)cyclohexyl)-N-(1-((1S,2R)-2-fluorocyclopropyl)-2-oxo-1,2-dihydropyridin-3-yl)-6-isopropoxy-2H-indazole-5-carboxamide]"
3,< 10,"CC(C)Oc1cc2nn([C@H]3CC[C@H](CN4CC5(CCN(c6ncc(C7CCC(=O)NC7=O)cc6F)CC5)C4)CC3)cc2cc1C(=O)Nc1cccn(C2CC2)c1=O (stereo partly drawn) [Example 124, N-(1-cyclopropyl-2-oxo-1,2-dihydropyridin-3-yl)-2-((r,4r)-4-((7-(5-(2,6-dioxopiperidin-3-yl)-3-fluoropyridin-2-yl)-2,7-diazaspiro[3.5]nonan-2-yl)methyl)cyclohexyl)-6-isopropoxy-2H-indazole-5-carboxamide]"
4,10 to 100,"CC(C)Oc1cc2nc(C3CCN(CC(F)=C4CCN(c5ccc(NC6CCC(=O)NC6=O)cc5)CC4)CC3)cn2cc1C(=O)Nc1cccc(C(F)F)n1 (stereo not drawn) [Example 111, N-(6-(difluoromethyl)pyridin-2-yl)-2-(1-(2-(1-(4-((2,6-dioxopiperidin-3-yl)amino)phenyl)piperidin-4-ylidene)-2-fluoroethyl)piperidin-4-yl)-7-isopropoxyimidazo[1,2-a]pyridine-6-carboxamide]"
5,10 to 100,"CC(C)Oc1cc2nc(C3CCN(C(=O)CC4(O)CCN(c5cc(Cl)c(NC6CCC(=O)NC6=O)cc5Cl)CC4)CC3)cn2cc1C(=O)Nc1cccc(C(F)F)n1 (stereo not drawn) [Example 75, 2-[1-[2-[1-[2,5-dichloro-4-[(2,6-dioxo-3-piperidyl)amino]phenyl]-4-hydroxy-4-piperidyl]acetyl]-4-piperidyl]-N-[6-(difluoromethyl)-2-pyridyl]-7-isopropoxy-imidazo[1,2-a]pyridine-6-carboxamide]"
6,10 to 100,"CC(C)Oc1cc2nc(C3CCN(C(=O)CCCCNc4ccc(C5CCC(=O)NC5=O)cn4)CC3)cn2cc1C(=O)Nc1cccn([C@H]2C[C@H]2F)c1=O (stereo partly drawn) [Example 165, 2-(1-(5-((5-(2,6-dioxopiperidin-3-yl)pyridin-2-yl)amino)pentanoyl)piperidin-4-yl)-N-(1-((1S,2R)-2-fluorocyclopropyl)-2-oxo-1,2-dihydropyridin-3-yl)-7-isopropoxyimidazo[1,2-a]pyridine-6-carboxamide]"
7,< 10,"CC(C)Oc1cc2nc([C@H]3CC[C@H](CN4CC[C@H](c5ccc6c(N7CCC(=O)NC7=O)nn(C)c6c5)[C@H](O)C4)CC3)cn2cc1C(=O)Nc1cccn(C2CC2)c1=O [Example 178, N-(1-cyclopropyl-2-oxo-1,2-dihydropyridin-3-yl)-2-((S,4r)-4-(((3S,4R)-4-(3-(2,4-dioxotetrahydropyrimidin-1(2H)-yl)-1-methyl-1H-indazol-6-yl)-3-hydroxypiperidin-1-yl)methyl)cyclohexyl)-7-isopropoxyimidazo[1,2-a]pyridine-6-carboxamide]"
8,< 10,"CC(C)Oc1cc2nc(C3CCN(C(=O)NC4CCN(c5ccc(C6CCC(=O)NC6=O)cn5)CC4)CC3)cn2cc1C(=O)Nc1cnn2cccnc12 (stereo not drawn) [Example 157, 2-[1-[[1-[5-(2,6-dioxo-3-piperidyl)-2-pyridyl]-4-piperidyl]carbamoyl]-4-piperidyl]-7-isopropoxy-N-pyrazolo[1,5-a]pyrimidin-3-yl-imidazo[1,2-a]pyridine-6-carboxamide]"
